Assay results: US5366543A, “Alcohol-soluble dye and ink composition containing the same” (Orient Chemical Industries, Ltd., priority 1992, dated 1994)

Assay: Solubility Comparing Test (saturation concentration of dye in alcohol type solvents)
Type: physicochemical
Conditions: for Solubility, Mixed solvent: Phenylene glycol:Benzyl alcohol:oleic acid = 4:1:1; for Solubility, Mixed solvent / Solubility, Ethylene glycol: dye added after heating the solvent to 70-80 C; for Solubility, Ethanol / Solubility, n-Propanol: saturation concentration by spotting on filter paper
Description: Solubility of disazo salt-forming dyes (dye 1-5) obtained in Examples 1-5 and dyes a-c into alcohol type organic […] was tested. While stirring each dye with a magnet stirrer, the dye was first added to 100 parts of solvent and it was spotted on the filter paper (Toyo filter paper No. 2) to investigate the saturation concentration. When ethylene glycol or mixed solvent was used for the solvent, dye was added after heating the solvent to 70-80 C.
Phenylene glycol:Benzyl alcohol:oleic acid = 4:1:1
2) Numbers in the Table indicate the solubility (wt %) into the respectiv

## CCC(C)c1ccc(N=Nc2c(S(=O)(=O)O)cc3cc(Nc4ccc5c(O)c(N=Nc6ccc(C(C)CC)cc6)c(S(=O)(=O)O)cc5c4)ccc3c2O)cc1 (centres unmarked) [Dye 2]
Listed as 2
  Solubility, Mixed solvent: 40 wt %
  Solubility, Ethanol: 25 wt %
  Solubility, n-Propanol: 20 wt %
  Solubility, Ethylene glycol: 30 wt %

## CCC(C)c1ccc(N=Nc2c(S(=O)(=O)O)cc3cc(Nc4ccc5c(O)c(N=Nc6ccc(C(C)CC)cc6)c(S(=O)(=O)O)cc5c4)ccc3c2O)cc1 (centres unmarked) [Dye 3]
Listed as 3
  Solubility, Mixed solvent: 30 wt %
  Solubility, Ethanol: 20 wt %
  Solubility, n-Propanol: 10 wt %

## COc1cc(N=Nc2ccccc2)c(C)cc1N=Nc1c(S(=O)(=O)O)cc2cc(S(=O)(=O)O)cc(N)c2c1O [Dye c, reference compound]
  Solubility, Mixed solvent: 40 wt %
  Solubility, Ethanol: 10 wt %
  Solubility, Ethylene glycol: 30 wt %
  Solubility, n-Propanol: 10 wt %

## CCC(C)c1ccc(N=Nc2c(S(=O)(=O)O)cc3cc(Nc4ccc5c(O)c(N=Nc6ccc(C(C)CC)cc6)c(S(=O)(=O)O)cc5c4)ccc3c2O)cc1 (centres unmarked) [Dye 1]
Listed as 1
  Solubility, Mixed solvent: 30 wt %
  Solubility, Ethanol: 20 wt %
  Solubility, n-Propanol: 15 wt %
  Solubility, Ethylene glycol: 30 wt %

## O=S(=O)(O)c1cc2cc(Nc3ccc4c(O)c(N=Nc5ccccc5)c(S(=O)(=O)O)cc4c3)ccc2c(O)c1N=Nc1ccccc1 [Dye b, reference compound]
Listed as b
  Solubility, Ethanol: 5 wt %

## O=S(=O)(O)c1cc2cc(Nc3ccc4c(O)c(N=Nc5ccccc5)c(S(=O)(=O)O)cc4c3)ccc2c(O)c1N=Nc1ccccc1 [Dye a]
  Solubility, Mixed solvent: 30 wt %
  Solubility, Ethylene glycol: 30 wt %
  Solubility, n-Propanol: 5 wt %
Listed as a
  Solubility, Ethanol: 10 wt %
